Read-outs that look alike come from different tables or passages of the source.
Tests used:
Assay in all cases: KiNativ, MOLM13 live cells
Type in all cases: cell-based
p38a = p38a (Homo sapiens, UniProt Q16539); conditions: 100 nM, 2 hours
Protocol: (§1) Samples were analyzed by KiNativ in situ kinase profiling by ActivX Biosciences.

CDK5 = CDK5 (Homo sapiens, UniProt Q00535); conditions: MOLM-13, 2 h, 100 nM
Protocol: as §1

PIP5K3 = PIP5K3 (Homo sapiens, UniProt Q9Y2I7); conditions: 100 nM, 2 hours; ATP
Protocol: as §1

IRE1 = IRE1 (Homo sapiens, UniProt O75460); conditions: MOLM-13; 100 nM, 2 hours; Lys2; read-out: Inhibition vs DMSO
IRE1, sequence (O75460 19-977): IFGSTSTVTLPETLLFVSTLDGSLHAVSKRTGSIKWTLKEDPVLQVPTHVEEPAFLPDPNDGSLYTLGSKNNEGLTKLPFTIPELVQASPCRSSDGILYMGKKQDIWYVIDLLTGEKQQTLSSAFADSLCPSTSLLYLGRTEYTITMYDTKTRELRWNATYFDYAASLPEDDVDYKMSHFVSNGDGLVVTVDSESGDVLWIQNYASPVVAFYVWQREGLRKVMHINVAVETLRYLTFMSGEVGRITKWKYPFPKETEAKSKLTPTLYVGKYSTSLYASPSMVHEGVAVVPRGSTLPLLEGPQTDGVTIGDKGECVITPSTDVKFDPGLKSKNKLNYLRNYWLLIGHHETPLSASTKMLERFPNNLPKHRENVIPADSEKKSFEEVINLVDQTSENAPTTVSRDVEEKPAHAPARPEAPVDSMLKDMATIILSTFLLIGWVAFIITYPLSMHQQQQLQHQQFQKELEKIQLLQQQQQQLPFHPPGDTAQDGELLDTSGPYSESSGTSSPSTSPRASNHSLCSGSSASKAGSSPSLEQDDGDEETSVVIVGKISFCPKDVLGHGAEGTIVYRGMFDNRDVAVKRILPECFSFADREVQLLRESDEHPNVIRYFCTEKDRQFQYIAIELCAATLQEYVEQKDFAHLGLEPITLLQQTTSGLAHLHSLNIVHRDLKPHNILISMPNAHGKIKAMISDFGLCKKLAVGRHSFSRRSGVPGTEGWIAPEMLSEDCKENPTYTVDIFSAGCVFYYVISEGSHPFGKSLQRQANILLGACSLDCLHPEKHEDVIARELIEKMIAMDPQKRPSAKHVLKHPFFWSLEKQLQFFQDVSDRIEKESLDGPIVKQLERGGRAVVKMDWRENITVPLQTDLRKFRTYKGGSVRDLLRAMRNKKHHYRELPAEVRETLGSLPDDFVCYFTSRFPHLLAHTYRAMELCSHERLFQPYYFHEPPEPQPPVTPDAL
Protocol: as §1

IKKb = biological target: T1, IKKb (Homo sapiens, UniProt O14920); conditions: MOLM-13, 2 h, 100 nM
T1 sequence (O14920 1-756): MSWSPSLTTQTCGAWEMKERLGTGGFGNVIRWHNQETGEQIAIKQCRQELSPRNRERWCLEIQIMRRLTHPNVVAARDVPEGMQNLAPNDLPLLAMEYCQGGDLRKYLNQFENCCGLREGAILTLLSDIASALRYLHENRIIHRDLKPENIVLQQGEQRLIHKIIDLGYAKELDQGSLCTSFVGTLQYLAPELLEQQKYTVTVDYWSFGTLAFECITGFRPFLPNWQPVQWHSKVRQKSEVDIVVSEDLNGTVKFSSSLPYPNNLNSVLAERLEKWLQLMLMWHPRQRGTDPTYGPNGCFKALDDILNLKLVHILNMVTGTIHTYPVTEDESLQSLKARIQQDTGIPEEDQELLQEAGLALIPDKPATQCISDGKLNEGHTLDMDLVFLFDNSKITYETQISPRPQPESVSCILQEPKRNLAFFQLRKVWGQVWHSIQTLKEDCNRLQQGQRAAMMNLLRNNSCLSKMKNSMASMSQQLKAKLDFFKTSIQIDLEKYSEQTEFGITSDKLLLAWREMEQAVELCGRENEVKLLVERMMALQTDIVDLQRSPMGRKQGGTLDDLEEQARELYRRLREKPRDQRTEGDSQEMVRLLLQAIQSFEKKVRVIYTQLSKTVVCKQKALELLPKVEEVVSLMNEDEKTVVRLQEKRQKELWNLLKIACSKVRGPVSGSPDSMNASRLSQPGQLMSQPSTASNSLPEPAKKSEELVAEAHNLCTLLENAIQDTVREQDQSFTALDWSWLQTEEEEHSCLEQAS
Protocol: as §1

RSK1 domain1 = biological target: T2, RSK1 domain1 (Homo sapiens, UniProt Q15418); conditions: MOLM-13; 100 nM, 2 hours; Activation Loop; read-out: Inhibition vs DMSO
T2 construct: RSK1 domain1
Protocol: as §1

MAP3K1 = MAP3K1 (Homo sapiens, UniProt Q13233); conditions: MOLM-13; 100 nM, 2 hours; Lys2; read-out: Inhibition vs DMSO
MAP3K1, sequence (Q13233 whole entry): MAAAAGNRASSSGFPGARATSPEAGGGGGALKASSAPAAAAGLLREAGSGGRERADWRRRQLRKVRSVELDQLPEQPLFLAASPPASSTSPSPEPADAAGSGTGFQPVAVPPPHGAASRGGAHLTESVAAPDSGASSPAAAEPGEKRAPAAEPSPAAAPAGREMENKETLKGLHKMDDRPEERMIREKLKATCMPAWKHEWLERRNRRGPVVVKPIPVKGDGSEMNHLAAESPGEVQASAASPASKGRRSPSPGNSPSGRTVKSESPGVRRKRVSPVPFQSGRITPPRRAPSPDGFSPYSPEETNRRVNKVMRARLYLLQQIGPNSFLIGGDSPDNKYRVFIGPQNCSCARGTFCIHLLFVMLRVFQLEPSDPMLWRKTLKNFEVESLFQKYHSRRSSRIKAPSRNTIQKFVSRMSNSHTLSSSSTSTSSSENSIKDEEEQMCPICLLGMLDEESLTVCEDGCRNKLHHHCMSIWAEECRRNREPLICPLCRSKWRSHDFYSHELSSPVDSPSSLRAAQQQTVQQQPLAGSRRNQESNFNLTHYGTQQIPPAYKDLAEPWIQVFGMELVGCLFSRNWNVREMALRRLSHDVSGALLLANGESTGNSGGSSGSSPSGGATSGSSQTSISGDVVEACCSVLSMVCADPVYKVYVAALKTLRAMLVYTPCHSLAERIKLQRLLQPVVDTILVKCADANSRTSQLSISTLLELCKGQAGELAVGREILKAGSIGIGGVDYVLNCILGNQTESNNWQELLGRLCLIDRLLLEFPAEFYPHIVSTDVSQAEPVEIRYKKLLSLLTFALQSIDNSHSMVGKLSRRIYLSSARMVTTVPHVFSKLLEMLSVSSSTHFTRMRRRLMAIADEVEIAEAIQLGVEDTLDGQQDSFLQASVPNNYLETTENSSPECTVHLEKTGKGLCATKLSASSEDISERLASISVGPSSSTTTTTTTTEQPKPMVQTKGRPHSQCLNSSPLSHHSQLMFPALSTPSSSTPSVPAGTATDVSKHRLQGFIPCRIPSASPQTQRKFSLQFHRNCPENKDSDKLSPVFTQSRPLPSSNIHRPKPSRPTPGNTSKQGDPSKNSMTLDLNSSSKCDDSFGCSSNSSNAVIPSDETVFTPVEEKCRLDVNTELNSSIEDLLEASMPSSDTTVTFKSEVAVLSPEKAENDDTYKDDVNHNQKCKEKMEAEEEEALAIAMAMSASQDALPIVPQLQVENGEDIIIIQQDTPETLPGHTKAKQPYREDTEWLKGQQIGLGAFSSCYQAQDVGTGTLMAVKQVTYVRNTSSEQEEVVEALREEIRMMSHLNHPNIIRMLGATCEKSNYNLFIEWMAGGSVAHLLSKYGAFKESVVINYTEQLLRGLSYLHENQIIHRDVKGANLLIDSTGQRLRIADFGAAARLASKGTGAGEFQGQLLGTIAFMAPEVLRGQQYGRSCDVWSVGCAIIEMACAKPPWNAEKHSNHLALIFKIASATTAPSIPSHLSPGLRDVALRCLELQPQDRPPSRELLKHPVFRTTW
Protocol: as §1

ZAK = ZAK (Homo sapiens, UniProt Q9NYL2); conditions: MOLM-13; 100 nM, 2 hours; Lys1; read-out: Inhibition vs DMSO
ZAK, sequence (Q9NYL2 whole entry): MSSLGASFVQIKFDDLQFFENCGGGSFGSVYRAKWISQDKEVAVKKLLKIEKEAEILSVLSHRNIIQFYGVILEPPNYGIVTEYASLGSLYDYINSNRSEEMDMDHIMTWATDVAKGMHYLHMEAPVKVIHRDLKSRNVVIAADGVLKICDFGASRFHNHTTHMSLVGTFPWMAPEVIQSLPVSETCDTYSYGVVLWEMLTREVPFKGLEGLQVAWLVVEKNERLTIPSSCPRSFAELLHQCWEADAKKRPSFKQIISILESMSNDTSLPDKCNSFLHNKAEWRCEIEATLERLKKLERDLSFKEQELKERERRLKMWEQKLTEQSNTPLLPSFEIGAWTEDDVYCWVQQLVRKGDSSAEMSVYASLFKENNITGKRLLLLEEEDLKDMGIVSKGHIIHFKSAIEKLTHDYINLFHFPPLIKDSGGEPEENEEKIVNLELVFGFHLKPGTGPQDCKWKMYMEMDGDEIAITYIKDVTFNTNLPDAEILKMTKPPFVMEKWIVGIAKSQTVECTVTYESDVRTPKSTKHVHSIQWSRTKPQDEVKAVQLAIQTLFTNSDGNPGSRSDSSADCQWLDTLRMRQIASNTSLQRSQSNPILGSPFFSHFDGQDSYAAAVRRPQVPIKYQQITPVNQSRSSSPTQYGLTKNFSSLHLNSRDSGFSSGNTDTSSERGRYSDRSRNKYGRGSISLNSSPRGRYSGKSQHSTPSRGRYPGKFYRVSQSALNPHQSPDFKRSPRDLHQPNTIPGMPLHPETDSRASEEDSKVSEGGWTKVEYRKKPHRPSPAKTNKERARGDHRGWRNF
Protocol: as §1

ILK = biological target: T3, ILK (Homo sapiens, UniProt Q13418); conditions: MOLM-13, 2 h, 100 nM
T3 sequence (Q13418 1-452): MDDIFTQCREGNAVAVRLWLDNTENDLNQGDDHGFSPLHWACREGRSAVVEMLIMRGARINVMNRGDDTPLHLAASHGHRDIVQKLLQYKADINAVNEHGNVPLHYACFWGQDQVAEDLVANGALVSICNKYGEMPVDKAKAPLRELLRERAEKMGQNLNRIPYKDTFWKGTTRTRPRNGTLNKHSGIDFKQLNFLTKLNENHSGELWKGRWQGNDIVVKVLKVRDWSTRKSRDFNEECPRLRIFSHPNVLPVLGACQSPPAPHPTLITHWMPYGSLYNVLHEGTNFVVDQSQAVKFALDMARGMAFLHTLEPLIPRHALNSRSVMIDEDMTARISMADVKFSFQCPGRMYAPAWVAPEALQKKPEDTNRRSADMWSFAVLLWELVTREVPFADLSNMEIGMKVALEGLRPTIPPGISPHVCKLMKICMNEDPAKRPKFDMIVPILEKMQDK
Protocol: as §1

CaMKK2 = CaMKK2 (Homo sapiens, UniProt Q96RR4); conditions: MOLM-13, 2 h, 100 nM
CaMKK2, sequence (Q96RR4 whole entry): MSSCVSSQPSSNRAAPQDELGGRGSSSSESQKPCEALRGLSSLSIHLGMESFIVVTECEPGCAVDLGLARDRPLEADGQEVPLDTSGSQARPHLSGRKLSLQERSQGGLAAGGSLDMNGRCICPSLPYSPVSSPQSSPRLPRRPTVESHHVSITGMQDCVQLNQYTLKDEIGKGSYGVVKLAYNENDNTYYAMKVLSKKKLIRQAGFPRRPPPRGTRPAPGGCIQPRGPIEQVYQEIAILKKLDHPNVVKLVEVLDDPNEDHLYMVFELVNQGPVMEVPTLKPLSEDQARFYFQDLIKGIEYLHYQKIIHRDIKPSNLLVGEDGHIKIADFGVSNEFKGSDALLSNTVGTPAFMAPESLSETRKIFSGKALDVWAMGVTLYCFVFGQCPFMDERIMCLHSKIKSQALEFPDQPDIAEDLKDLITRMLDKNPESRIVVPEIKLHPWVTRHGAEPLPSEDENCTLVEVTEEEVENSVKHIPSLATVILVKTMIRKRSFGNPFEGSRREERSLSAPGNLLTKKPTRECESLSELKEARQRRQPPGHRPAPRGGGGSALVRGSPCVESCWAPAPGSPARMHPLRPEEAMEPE
Protocol: as §1

ZAP70 = biological target: T4, ZAP70 (Homo sapiens, UniProt P43403); conditions: MOLM-13; 100 nM, 2 hours; Activation Loop; read-out: Inhibition vs DMSO
T4 sequence (P43403 1-619): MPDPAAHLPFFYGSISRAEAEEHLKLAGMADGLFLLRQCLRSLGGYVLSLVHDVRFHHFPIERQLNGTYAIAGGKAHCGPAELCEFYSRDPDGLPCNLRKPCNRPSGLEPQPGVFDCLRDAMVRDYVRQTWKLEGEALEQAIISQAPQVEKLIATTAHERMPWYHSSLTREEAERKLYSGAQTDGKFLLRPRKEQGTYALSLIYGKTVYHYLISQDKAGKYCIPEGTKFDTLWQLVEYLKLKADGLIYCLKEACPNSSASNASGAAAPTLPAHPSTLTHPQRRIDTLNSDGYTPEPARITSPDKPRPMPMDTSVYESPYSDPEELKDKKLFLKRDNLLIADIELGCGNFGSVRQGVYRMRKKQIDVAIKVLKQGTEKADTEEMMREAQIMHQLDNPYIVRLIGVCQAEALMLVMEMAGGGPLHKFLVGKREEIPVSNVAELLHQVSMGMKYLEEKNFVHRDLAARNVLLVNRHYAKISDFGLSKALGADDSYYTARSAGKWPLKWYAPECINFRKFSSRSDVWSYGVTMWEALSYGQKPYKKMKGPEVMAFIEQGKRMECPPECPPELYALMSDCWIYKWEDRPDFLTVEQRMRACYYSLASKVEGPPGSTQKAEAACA
Protocol: as §1

CaMK1d = CaMK1d (Homo sapiens, UniProt Q8IU85); conditions: MOLM-13; 100 nM, 2 hours; Lys1; read-out: Inhibition vs DMSO
Protocol: as §1

CCRK = CCRK (Homo sapiens, UniProt Q8IZL9); conditions: MOLM-13; 100 nM, 2 hours; Lys2; read-out: Inhibition vs DMSO
CCRK, sequence (Q8IZL9 whole entry): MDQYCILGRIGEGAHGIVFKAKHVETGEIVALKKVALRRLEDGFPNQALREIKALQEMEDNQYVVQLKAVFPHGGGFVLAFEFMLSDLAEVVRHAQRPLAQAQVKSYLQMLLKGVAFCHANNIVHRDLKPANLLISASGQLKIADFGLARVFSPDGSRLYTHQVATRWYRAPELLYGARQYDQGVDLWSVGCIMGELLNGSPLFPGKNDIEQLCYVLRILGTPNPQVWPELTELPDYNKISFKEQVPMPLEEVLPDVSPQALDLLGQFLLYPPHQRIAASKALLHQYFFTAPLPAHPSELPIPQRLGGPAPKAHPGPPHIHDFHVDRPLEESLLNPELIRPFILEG
Protocol: as §1

BTK = BTK (Homo sapiens, UniProt Q06187); conditions: 100 nM, 2 hours; Activation Loop
Protocol: as §1

[1] = Lys1, read-out: Inhibition vs DMSO
[2] = Lys2, read-out: Inhibition vs DMSO

CDK5, sequence (Q00535 whole entry): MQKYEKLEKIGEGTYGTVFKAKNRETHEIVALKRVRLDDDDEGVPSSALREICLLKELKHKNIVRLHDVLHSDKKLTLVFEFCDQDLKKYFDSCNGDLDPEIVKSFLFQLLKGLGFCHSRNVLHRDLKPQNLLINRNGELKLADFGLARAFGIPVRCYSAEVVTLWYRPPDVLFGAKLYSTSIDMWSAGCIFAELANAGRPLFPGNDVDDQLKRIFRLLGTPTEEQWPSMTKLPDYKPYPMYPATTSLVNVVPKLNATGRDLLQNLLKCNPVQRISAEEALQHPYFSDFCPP
p38a, sequence (Q16539 whole entry): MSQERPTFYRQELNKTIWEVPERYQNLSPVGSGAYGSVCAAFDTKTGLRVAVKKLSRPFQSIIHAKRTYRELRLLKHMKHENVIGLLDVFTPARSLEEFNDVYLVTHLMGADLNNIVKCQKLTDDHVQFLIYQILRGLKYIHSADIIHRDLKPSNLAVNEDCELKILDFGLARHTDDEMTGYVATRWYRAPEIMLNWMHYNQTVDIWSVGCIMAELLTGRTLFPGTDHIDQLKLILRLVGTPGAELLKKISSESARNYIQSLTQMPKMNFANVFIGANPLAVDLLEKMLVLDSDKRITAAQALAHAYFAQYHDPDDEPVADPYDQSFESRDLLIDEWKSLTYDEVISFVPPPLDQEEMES

`CN1CCN(Cc2ccc(Nc3ncc(Cl)c(Nc4ccccc4S(=O)(=O)N(C)C)n3)cc2)CC1` [TP-0903] was tested, and the “Inhibition vs DMSO” value (p38a; Lys2) was -1.9%, the “Inhibition vs DMSO” value (p38a; Other) was 17.3% and the inhibition at 0.1 µM (CDK5; [1]) was 31.9%. The inhibition at 0.1 µM (CDK5; [2]) was 20.7%, the “Inhibition vs DMSO” value (PIP5K3) was 50.9% and the inhibition at 0.1 µM (IRE1) was -29.3%. The inhibition at 0.1 µM (IKKb; [1]) was -4.8%, the inhibition at 0.1 µM (IKKb; [2]) was -10.5% and the inhibition at 0.1 µM (RSK1 domain1) was -3.8%. For the same compound, the inhibition at 0.1 µM (MAP3K1) was 55.7%, the inhibition at 0.1 µM (ZAK) was 7.6% and the inhibition at 0.1 µM (ILK; [1]) was 6.4%. For the same compound, the inhibition at 0.1 µM (ILK; Protein Kinase Domain, read-out: Inhibition vs DMSO) was -1.3%, the inhibition at 0.1 µM (CaMKK2; [1]) was 40.8% and the inhibition at 0.1 µM (CaMKK2; [2]) was 36.1%. It also gave an inhibition at 0.1 µM (ZAP70) of 26.3%, an inhibition at 0.1 µM (CaMK1d) of 23.2% and an inhibition at 0.1 µM (CCRK) of 68.3%. The “Inhibition vs DMSO” value (BTK) was 57.0%.

Reference: PMC7714403 (JCI Insight, 2020)
